In patent US9855265B2, “Methods for treating cancer with TrkA receptor tyrosine kinase antagonists” (VM Oncology LLC, priority 2014, dated 2018):
pIC50: −log10 of the molar value. Like-named read-outs stand apart in the source and are kept apart here.

Assays:
AKT1 = AKT1 (Homo sapiens, UniProt P31749); assay: radiometric kinase assay, other kinases: AKT1; assay type: biochemical; conditions: duplicate
Experimental: (§1) Compound inhibition in a radiometric based mixed micelle assay: In a final reaction volume of 25 μL, TrkA (h) ([…]) is incubated with the kinase reaction buffer (20 mM HEPES (pH 7.5), 10 mM MgCl2, 1 mM EGTA, 0.02% Brij 35, 0.02 mg/ml BSA, 0.1 mM Na3VO4, 2 mM DTT, 1% DMSO), 0.2 mg/ml substrate PolyEY(4:1) and […], and [^33P-ATP](specific activity approx. 500 cpm/pmol, concentration as required). The reaction is initiated by the addition of the MgATP mix. After incubation for at least 40 minutes at room temperature, the reaction is stopped by the addition of 5 μL of a 3% phosphoric acid solution. 10 μL of the reaction is then spotted onto a P30 filtermat and washed three times for 5 minutes in 75 mM phosphoric acid and once in methanol prior to drying and scintillation counting. TrkA: Recombinant Human Cytoplasmic Domain (amino acids 441-796), Histidine-tagged, expressed in insect cells. Activated in vitro via auto-phosphorylation. Mw=42.8 kDa. Substrates for kinases: poly(EY) for TRKA; poly(EY)(4:1) with 2 mM MnCl2, average Mw=16 kDa Standard conditions (unless otherwise specified): 30 nM TRKA, 0.2 mg/ml poly(EY)+2 mM MnCl2, and 10 μM ([γ-^33P]) ATP. Using the similar assay condition with other kinases of recombinant human cytoplasmic domain, the activities of other kinases could be also measured.

ARAF = ARAF (Homo sapiens, UniProt P10398); assay: radiometric kinase assay, other kinases: ARAF; assay type: biochemical; conditions: duplicate
Chain of ARAF (P10398 whole entry): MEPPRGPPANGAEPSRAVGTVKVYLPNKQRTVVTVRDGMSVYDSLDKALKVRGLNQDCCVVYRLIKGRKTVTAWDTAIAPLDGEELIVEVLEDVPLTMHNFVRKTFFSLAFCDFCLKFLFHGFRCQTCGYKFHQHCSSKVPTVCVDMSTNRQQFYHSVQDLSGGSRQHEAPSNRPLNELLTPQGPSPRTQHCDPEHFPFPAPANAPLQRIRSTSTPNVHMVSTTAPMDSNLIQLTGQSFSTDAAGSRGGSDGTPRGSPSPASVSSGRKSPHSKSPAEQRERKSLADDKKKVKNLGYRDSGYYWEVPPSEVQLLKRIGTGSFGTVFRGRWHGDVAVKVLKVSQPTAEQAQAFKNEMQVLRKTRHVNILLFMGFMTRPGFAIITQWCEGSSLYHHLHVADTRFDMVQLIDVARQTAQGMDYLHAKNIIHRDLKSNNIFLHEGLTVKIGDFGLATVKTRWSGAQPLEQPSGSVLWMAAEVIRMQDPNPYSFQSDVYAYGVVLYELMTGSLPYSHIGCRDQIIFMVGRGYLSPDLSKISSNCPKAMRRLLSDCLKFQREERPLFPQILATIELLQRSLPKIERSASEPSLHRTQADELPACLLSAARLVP
Experimental: as §1

BTK = BTK (Homo sapiens, UniProt Q06187); assay: radiometric kinase assay, other kinases: BTK; assay type: biochemical; conditions: duplicate
Chain of BTK (Q06187 whole entry): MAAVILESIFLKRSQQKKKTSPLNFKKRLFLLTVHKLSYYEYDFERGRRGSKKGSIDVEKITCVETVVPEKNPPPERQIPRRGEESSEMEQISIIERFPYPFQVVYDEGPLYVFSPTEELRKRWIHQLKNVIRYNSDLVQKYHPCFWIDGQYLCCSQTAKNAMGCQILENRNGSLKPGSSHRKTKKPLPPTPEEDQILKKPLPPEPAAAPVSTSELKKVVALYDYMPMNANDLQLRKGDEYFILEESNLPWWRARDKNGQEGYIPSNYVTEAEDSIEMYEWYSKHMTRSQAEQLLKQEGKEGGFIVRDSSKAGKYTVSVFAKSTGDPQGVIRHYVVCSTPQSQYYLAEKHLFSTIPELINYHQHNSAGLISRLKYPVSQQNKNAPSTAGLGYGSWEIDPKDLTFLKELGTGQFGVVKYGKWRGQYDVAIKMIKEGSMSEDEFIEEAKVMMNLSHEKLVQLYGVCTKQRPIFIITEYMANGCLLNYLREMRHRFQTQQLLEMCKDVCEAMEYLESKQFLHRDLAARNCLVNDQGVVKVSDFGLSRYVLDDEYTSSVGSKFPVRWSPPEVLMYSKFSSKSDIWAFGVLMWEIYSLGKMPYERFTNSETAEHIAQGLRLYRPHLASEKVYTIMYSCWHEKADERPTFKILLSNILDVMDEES
Experimental: as §1

CDK1/cyclinB = CDK1/cyclinB (Homo sapiens, UniProt P06493); assay: radiometric kinase assay, other kinases: CDK1/cyclinB; assay type: biochemical; conditions: duplicate
Chain of CDK1/cyclinB (P06493 whole entry): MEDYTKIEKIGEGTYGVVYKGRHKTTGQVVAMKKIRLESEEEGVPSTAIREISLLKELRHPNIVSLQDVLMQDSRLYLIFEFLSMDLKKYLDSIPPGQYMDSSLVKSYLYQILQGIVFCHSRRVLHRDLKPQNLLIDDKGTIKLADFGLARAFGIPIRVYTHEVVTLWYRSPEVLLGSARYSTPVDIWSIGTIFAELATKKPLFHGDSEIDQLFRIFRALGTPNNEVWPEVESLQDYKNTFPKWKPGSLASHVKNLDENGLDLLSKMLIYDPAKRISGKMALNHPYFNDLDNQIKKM
Chain of CDK1/cyclinB (P14635 whole entry partner): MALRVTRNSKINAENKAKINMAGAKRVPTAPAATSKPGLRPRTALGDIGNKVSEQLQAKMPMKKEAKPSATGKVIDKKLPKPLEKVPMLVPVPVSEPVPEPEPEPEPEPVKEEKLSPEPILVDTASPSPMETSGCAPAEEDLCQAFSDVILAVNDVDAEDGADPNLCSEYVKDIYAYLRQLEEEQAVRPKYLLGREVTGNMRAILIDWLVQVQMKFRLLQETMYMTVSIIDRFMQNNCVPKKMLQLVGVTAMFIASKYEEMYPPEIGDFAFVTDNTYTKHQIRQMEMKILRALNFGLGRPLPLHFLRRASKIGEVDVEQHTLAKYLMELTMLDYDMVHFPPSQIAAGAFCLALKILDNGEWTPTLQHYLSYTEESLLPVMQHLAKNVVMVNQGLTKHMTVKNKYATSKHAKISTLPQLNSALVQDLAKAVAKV
Experimental: as §1

c-MET = target: T1, c-MET (Homo sapiens, UniProt P08581); assay: radiometric kinase assay, other kinases: c-MET; assay type: biochemical; conditions: duplicate
T1 construct: other kinases of recombinant human cytoplasmic domain
Experimental: as §1

FLT3 (CD) = target: T2, FLT3 (CD) (Homo sapiens, UniProt P36888); assay: radiometric kinase assay, other kinases: FLT3 (CD); assay type: biochemical; conditions: duplicate
T2 construct: other kinases of recombinant human cytoplasmic domain
T2 sequence (P36888 564-993 limits assumed): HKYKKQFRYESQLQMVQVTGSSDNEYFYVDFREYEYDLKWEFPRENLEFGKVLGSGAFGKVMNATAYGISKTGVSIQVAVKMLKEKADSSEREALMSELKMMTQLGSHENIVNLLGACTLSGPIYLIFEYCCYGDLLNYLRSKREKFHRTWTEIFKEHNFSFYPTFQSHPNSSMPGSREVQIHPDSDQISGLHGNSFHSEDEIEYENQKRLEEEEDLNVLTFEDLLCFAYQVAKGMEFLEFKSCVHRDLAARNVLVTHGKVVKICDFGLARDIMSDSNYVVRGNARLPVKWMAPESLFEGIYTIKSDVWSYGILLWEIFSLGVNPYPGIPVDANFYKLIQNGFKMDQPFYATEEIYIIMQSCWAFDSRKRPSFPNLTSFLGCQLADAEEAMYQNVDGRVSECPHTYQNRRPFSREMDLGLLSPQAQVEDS
Experimental: as §1

FMS = target: T3, FMS (Homo sapiens, UniProt P07333); assay: radiometric kinase assay, other kinases: FMS; assay type: biochemical; conditions: duplicate
T3 construct: other kinases of recombinant human cytoplasmic domain
Experimental: as §1

JAK3 = JAK3 (Homo sapiens, UniProt P52333); assay: radiometric kinase assay, other kinases: JAK3; assay type: biochemical; conditions: duplicate
Experimental: as §1

MEK2 = MEK2 (Homo sapiens, UniProt P36507); assay: radiometric kinase assay, other kinases: MEK2; assay type: biochemical; conditions: duplicate
Experimental: as §1

MUSK = target: T4, MUSK (Homo sapiens, UniProt O15146); assay: radiometric kinase assay, other kinases: MUSK; assay type: biochemical; conditions: duplicate
T4 construct: other kinases of recombinant human cytoplasmic domain
T4 sequence (O15146 517-869 limits assumed): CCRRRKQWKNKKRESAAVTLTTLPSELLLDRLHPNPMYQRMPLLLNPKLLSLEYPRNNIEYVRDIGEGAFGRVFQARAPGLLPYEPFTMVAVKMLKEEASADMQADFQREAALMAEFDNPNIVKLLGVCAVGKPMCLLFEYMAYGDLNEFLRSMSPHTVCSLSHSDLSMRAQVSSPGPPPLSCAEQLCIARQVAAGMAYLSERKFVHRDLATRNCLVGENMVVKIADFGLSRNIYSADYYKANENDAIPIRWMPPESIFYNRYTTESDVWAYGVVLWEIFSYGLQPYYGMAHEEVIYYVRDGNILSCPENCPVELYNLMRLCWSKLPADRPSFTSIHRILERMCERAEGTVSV
Experimental: as §1

PDGFRb = target: T5, PDGFRb (Homo sapiens, UniProt P09619); assay: radiometric kinase assay, other kinases: PDGFRb; assay type: biochemical; conditions: duplicate
T5 construct: other kinases of recombinant human cytoplasmic domain
Experimental: as §1

PKA = PKA (Homo sapiens, UniProt P17612); assay: radiometric kinase assay, other kinases: PKA; assay type: biochemical; conditions: duplicate
Experimental: as §1

PKCbetaI = PKCbetaI (Homo sapiens, UniProt P05771); assay: radiometric kinase assay, other kinases: PKCbetaI; assay type: biochemical; conditions: duplicate
Experimental: as §1

PKCbetaII = PKCbetaII (Homo sapiens, UniProt P05771); assay: radiometric kinase assay, other kinases: PKCbetaII; assay type: biochemical; conditions: duplicate
Chain of PKCbetaII (P05771 1-673 isoform P05771-2): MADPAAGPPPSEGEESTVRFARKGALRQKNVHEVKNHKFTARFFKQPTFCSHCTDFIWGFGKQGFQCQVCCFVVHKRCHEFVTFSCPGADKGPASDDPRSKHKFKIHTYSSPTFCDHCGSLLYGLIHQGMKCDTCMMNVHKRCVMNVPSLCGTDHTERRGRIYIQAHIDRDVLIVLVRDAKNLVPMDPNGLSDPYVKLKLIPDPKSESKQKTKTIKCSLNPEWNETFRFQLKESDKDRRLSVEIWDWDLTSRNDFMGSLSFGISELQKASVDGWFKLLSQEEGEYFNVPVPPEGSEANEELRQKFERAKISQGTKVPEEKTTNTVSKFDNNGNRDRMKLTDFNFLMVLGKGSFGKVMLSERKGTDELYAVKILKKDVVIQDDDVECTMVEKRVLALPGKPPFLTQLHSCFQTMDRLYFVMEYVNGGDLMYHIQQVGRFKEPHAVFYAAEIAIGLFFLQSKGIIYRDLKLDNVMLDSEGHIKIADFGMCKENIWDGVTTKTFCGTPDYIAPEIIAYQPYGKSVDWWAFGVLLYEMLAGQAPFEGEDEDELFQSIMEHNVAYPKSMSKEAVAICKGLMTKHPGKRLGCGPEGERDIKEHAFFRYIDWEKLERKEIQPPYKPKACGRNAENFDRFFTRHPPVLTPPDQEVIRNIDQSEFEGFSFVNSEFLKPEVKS
Experimental: as §1

PKCepsilon = PKCepsilon (Homo sapiens, UniProt Q02156); assay: radiometric kinase assay, other kinases: PKCepsilon; assay type: biochemical; conditions: duplicate
Chain of PKCepsilon (Q02156 whole entry): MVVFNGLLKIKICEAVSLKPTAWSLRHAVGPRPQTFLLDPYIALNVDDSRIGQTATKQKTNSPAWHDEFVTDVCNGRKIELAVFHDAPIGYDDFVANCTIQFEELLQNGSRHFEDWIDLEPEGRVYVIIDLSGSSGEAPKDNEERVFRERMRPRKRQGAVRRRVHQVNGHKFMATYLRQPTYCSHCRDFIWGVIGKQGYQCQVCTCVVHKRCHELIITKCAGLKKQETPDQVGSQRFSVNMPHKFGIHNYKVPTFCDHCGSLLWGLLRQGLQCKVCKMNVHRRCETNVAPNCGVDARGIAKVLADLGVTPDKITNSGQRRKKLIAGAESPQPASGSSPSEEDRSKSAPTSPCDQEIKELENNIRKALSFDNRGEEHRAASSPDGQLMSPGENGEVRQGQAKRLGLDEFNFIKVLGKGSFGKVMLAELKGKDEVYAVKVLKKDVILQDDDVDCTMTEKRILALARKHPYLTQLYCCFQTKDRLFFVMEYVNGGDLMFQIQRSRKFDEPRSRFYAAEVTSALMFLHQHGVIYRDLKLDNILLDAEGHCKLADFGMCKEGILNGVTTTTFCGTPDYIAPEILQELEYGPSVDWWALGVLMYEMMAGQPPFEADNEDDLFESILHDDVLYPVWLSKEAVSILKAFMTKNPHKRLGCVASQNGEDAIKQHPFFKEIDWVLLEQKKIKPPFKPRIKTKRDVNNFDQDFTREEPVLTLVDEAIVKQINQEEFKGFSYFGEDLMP
Experimental: as §1

PKG1a = PKG1a (Homo sapiens, UniProt Q13976); assay: radiometric kinase assay, other kinases: PKG1a; assay type: biochemical; conditions: duplicate
Experimental: as §1

PKG1b = PKG1b (Homo sapiens, UniProt Q13976); assay: radiometric kinase assay, other kinases: PKG1b; assay type: biochemical; conditions: duplicate
Experimental: as §1

TEC = TEC (Homo sapiens, UniProt P42680); assay: radiometric kinase assay, other kinases: TEC; assay type: biochemical; conditions: duplicate
Chain of TEC (P42680 whole entry): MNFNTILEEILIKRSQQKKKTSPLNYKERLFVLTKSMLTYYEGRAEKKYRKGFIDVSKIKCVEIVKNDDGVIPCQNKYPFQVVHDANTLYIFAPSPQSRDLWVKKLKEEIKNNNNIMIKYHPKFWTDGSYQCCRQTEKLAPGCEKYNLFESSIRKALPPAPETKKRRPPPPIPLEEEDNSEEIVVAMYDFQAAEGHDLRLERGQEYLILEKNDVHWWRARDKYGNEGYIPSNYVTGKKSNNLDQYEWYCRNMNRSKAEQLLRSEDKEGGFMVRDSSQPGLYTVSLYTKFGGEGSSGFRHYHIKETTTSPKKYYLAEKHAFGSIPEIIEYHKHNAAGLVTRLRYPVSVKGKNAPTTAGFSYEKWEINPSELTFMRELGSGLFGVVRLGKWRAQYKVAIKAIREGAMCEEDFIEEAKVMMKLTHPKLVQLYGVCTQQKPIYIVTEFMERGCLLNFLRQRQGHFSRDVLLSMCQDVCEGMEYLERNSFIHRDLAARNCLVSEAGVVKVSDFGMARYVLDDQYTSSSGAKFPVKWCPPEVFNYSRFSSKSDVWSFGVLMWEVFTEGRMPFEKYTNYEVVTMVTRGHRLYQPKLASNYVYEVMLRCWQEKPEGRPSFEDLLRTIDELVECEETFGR
Experimental: as §1

TGFbR2 = target: T6, TGFbR2 (Homo sapiens, UniProt P37173); assay: radiometric kinase assay, other kinases: TGFbR2; assay type: biochemical; conditions: duplicate
T6 construct: other kinases of recombinant human cytoplasmic domain
Experimental: as §1

[1] = target: other more than 400 kinases; assay: radiometric kinase assay, kinase panel; assay type: biochemical, human; conditions: duplicate
Experimental: as §1

[2] = tested on: MIA PaCa-2 human pancreatic cancer cells; assay: Cell Viability and Proliferation Assay, MIA PaCa-2; assay type: cell-based; conditions: after 24 incubation
Experimental: Cell Viability and Proliferation Assays. To assess the chemosensitivity of tumor cells, cell viability is measured by CellTiter-Glo® Luminescent Cell Viability Assay (Promega; Wis., USA) per the manufacturer's instruction. Briefly, 5×10^3 to 7×10^5 cells/ml are cultured in sterile 96-well plates in the presence of increasing concentrations of the drugs (test article, 0 to 100 μM), or vehicle in RPMI medium. The plates are then incubated for 24 to 96 h, and then 100 μl of CellTiter-Glo reagent is added to lyse the cells. After a 10-min incubation at room temperature, the luminescence is recorded in a luminometer with an integration time of 1 s per well. The luminescence signals for the drug-treated cells are normalized by the luminescence signal obtained from vehicle-treated cells. As an alternative method to quantitate cell viability, the trypan blue exclusion dye method was used. Vehicle- or drug-treated cells were assayed by adding trypan blue solution (0.4% in phosphate-buffered saline [PBS]) to the culture medium. After 3 min, the number of dead cells that retained the dye is compared to the total number of cells to calculate cell viability. GraphPad Prism 5 software is used to calculate IC50 and plot effect-dose curve of drugs. Multiplate reader: EnVision 2104 (PerkinElmer). % of control variability=100*[(X(drug_treated)−L(baseline))/(H(vehicle_control)−L(baseline))]. […]

[3] = Pharmacokinetics and bioavailability in CD-1 mice; conditions: in vivo
Experimental: Pharmacokinetic and bioavailabilities after oral and intraperitoneal (i.p.) treatment bioavailability in CD-1 mice. Pharmacokinetics and bioavailability of after oral and i.p. treatment in CD-1 mice (n=4 per dose group) are determined.

[4] = tested on: CCI rats, mechanical allodynia; conditions: CCI rats, 150 mg/kg oral dose
Experimental: Chronic Constriction Injury (CCI) Model of Neuropathic Pain in Rats. […] Chronic constriction injury of the sciatic nerve was produced by tying four loose ligatures around the left sciatic nerve according to the method of Bennett and Xie. […] Calibrated von Frey filaments were used to determine the lowest mechanical (tactile) threshold required to evoke a brisk paw withdrawal reflex in the rat hindpaws. Rats were allowed to acclimatize in wire mesh cages for 15-20 min prior to von Frey testing. Assessment of paw withdrawal thresholds (PWTs) using von Frey filaments was undertaken prior to CCI-surgery (pre-surgery baseline on day 0). Before the drug dosing on day 14, the pre-dose baseline was recorded for each rat. […] Drug-naïve CCI-rats (n=4-6 per group) were used. The oral vehicle was 0.5% CMC-Na/0.1% Tween 80 in distilled water. The positive control gabapentin was dissolved in the vehicle and orally given at 100 mg/kg (by oral gavage). Test compound was suspended in the vehicle and orally given at 50 mg/kg and 100 mg/kg.

Nc1c(N2CCN(C3CCCCC3)CC2)cc(Nc2ccc(C(=O)O)cc2)c2c1C(=O)c1ccccc1C2=O [Compound 12, 4-{[4-amino-3-(4-cyclohexylpiperazin-1-yl)-9,10-dioxo-9,10-dihydroanthracen-1-yl]amino}benzoic acid]
pIC50 (AKT1): < 5.00 | pIC50 (ARAF): < 5.00 | pIC50 (BTK): < 5.00 | pIC50 (CDK1/cyclinB): < 5.00 | pIC50 (c-MET): < 5.00 | pIC50 (FLT3 (CD)): < 5.00 | pIC50 (FMS): < 5.00 | pIC50 (JAK3): < 5.00 | pIC50 (MEK2): < 5.00 | pIC50 (MUSK): < 5.00 | pIC50 (PDGFRb): < 5.00 | pIC50 (PKA): < 5.00 | pIC50 (PKCbetaI): < 5.00 | pIC50 (PKCbetaII): < 5.00 | pIC50 (PKCepsilon): < 5.00 | pIC50 (PKG1a): < 5.00 | pIC50 (PKG1b): < 5.00 | pIC50 (TEC): < 5.00 | pIC50 (TGFbR2): < 5.00 | pIC50 [1]: < 5.00 | pIC50 [2]: 5.30 to 5.70 | half-life ([3]; CD-1, mouse, ip, 50 mg/kg): ~3.5 h | half-life ([3]; CD-1, mouse, iv): ~1 h | bioavailability ([3]; CD-1, mouse, po, 50 mg/kg): ~100% | half-life ([3]; CD-1, mouse, po, 50 mg/kg): ~4.5 h | bioavailability ([3]; mouse, ip, CD-1 mice, 50 mg/kg i.p. dosing, read-out: i.p. bioavailability): ~100% | relative analgesic effect compared to morphine (HCl) at 3 mg/kg, s.c. [4]: about 48%
